From patent US5824647A, “Chemotactic wound healing peptides” (priority 1995, dated 1998) come the findings set out here.

“And” between values parts separate entries of the source, which are not always exact repeats. Equal values may be shown once. “Also recorded” adds a separate entry of the source.

Test [1] relates to infant foreskin fibroblasts. The test is described as follows: Fibroblast chemotaxis in modified Boyden chambers (incl. checkerboard and deactivation studies). The format is cell-based, human. Particulars: for Mean Fibroblasts per 20 OIF + SEM: Experiment 1, lower compartment: TGF-β1 50 pg/ml, peptide 368-374 1.4 × 10^-5 M, peptide 364-378 6.7 × 10^-7 M, fibronectin 20 μg/ml; for fibroblast chemotaxis / migration (in words): peptide in lower compartment of modified Boyden chamber; for chemotactic response of fibroblasts to peptide with fibronectin in upper chamber (in words): unrelated chemoattractant fibronectin in the upper chamber. The procedure:
Target cells used in in vitro chemotaxis assays were infant foreskin fibroblasts obtained by establishing monolayer cultures from explants of tissue. Cells were maintained in Eagle's minimum essential medium (MEM) supplemented with non-essential amino acids, antibiotics, 50 ug/ml ascorbic acid, and 9% fetal calf serum (FCS). Cells were passaged by trypsinization every 3-5 days.
Infant foreskin fibroblasts were harvested from monolayer culture by gentle trypsinization, washed twice in serum-free Eagles's MEM and adjusted to a final concentration of 250,000 cells/ml. The cell suspension (0.4 ml) was added to the upper compartments of blind well modified Boyden chemotaxis chambers. The peptides of the invention being assayed for chemotactic activity were solubilized in glycylglycine (0.015M) buffered NaCl (0.14M), pH 7.2, hereinafter referred to as GGBS, and diluted 50% with serum-free MEM. Test substances were added to the lower compartment of the chemotaxis chambers. Gelatin-treated polycarbonate filters (8 micron pore size) were interposed between the lowest compartment and the upper cell compartment. Loaded chambers were incubated at 37° C. in a humidified atmosphere containing 5% CO2 for 150 minutes. After incubation, the chambers were disassembled, the filters removed, stained with hematoxylin, and mounted on glass cover slips. Fibroblast chemotaxis was quantitated by counting the number of fibroblasts in 20 oil immersion fields (OIF) that migrated and adhered to the lower surface of each filter. Samples were tested in quadruplicate and results are expressed as mean number of fibroblasts per 20 OIF±standard error of the mean (SEM). Chemotaxis neutralization studies were performed by adding TGF-β1 or fibronectin to the upper cell compartment and testing for effects on fibroblast migration to the TGF-β peptides.
Zigmond-Hirsch checkerboard analysis (Zigmond & Hirsch, J. Exptl. Med. 137:387, 1972) was performed to determine whether the 7-mer peptide 368-374 (Val Tyr Tyr Val Gly Arg Lys) induced chemotaxis of fibroblasts, monocytes and neutrophils.
Deactivation studies were utilized to determine whether the peptides of the invention containing the 7-mer peptide amino acid sequence induced chemotaxis via cellular receptors and mechanisms utilized by intact TGF-β.

Test [2] relates to fibroblasts. The test is described as follows: HLA-DR, fibroblast effects. Particulars: Table II summary. The format is cell-based. Also noted: key: NE = No Effect.
The next test relates to T-Cell. The test is described as follows: T-cell proliferation. The format is cell-based. Also noted: key: NE = No Effect. The following applies: Table II summary.
In a further test the test system is guinea pig skin. The experiment in a line: In vivo fibrosis assay, intradermal injection into guinea pig skin. Also on record: species or system Guinea pigs (Hartley strain). The following applies: for Histologic Score (degree of fibrosis), Peptide site: 400 μg peptide in 1.7 mg type I collagen carrier, 100 μl intradermal, 9 days, one value per guinea pig, scale 0 to 4; for fibrogenic response / fibrosis in guinea pig skin (in words): intradermal injection of peptide in collagen carrier. The protocol: The ability of the peptides to induce cellular chemotaxis and a fibrogenic response (fibroblast proliferation and collagen synthesis) in vivo may be measured by intradermal injection of the peptides into the skin of guinea pigs. Generally, the in vivo, guinea pig skin studies were carried out according to the following protocol:
8 mg/cc stocks of the peptides according to the present invention in Dulbecco's PBS were sterile filtered using a 0.45μ syringe filter. PBS plus ZYDERM™ collagen (Collagen Corp., Inc.) was used as a control. Peptide stocks were diluted 1:1 with ZYDERM™ collagen (35 mg/ml), resulting in a 4 mg/ml peptide-collagen suspension. Peptide-collagen suspensions were kept on ice at all times and drawn up in 1 cc syringes fitted with 27 or 28 gauge needles.
(§1) Guinea pigs (Hartley strain, female, weanlings) were shaved on the left and right sides of their abdomens. 100 μl of a suspension of peptide-collagen was injected intradermally in one site on each side of each guinea pig. Each site was circled with an indelible ink pen. Pigs were remarked after 3 days. At appropriate times after injection, guinea pigs were sacrificed via CO2 narcosis. Animals were shaved and a depilatory was used to remove remaining stubble. Injection sites were excised using a skin biopsy punch (6 mm). Tissue was placed in vials with 10% neutral buffered formalin. Sections were processed for staining with H+E and Masson's Trichrome.
8 mg/cc stocks of TGF-β1 peptides in Dulbecco's PBS were sterile filtered using a 0.45μ syringe filter. PBS plus ZYDERM™ (Collagen Corp., Inc.) was used as a control. Peptide stocks were diluted 1:1 with ZYDERM™ collagen (35 mg/ml) resulting in a 4 mg/ml peptide-collagen suspension. Peptide-collagen suspensions were kept on ice at all times and drawn up in 1 cc syringes fitted with 27 or 28 gauge needles.
as §1, with “of” for “of a”, “peptide-collagenwas” for “peptide-collagen was”, “straining” for “staining”
In vivo fibrosis assays were performed. Guinea pigs were injected intradermally with 400 μg of either peptide VYYVGRK (SEQ ID NO. 1) or peptide PLPIVYYVGRKPKVE (SEQ ID NO. 6) in a 100 μl volume of saline containing type I bovine collagen carrier 1.7 mg (zyderm, Celtrex Corp. Palo Alto, Calif.). As a control, at a distant site on the same guinea pig, the collagen carrier plus saline was injected intradermally as a control. Nine days later, the animals were sacrificed, and the skin sectioned through the injection sites was processed for histology using Mason-Trichrome to stain collagen fibers. The degree of fibrosis was assessed at 400×magnification to determine degree of replacement of surrounding subcutaneous fat with newly synthesized collagen. FIG. 15 is a Mason-Trichrome, 400×[…] of 9 day post intradermal injection of guinea pig skin with 100 μl, 400 μg peptide PLPIVYYVGRKPKVE ([…]) in collagen carrier (1.7 mg). There is marked (score of 4) replacement of fat cells with newly synthesized collagen in the subcutaneous fatty layer. Fibroblasts are noted scattered throughout what was once subcutaneous fatty layer. FIG. 16 is a Mason-Trichrome 400×magnification of 9 days post intradermal injection of the same guinea pig as in […] at a distant site with saline and collagen carrier as a control. Note minimal (score of 1) replacement of fat cells with newly synthesized collagen. Few fibroblasts are visible in the subcutaneous fatty layer. […]

In test [3] the test system is fibroblasts. The experiment in a line: Hyaluronate production by fibroblasts. The format is cell-based. Also noted: key to FIBROBLAST EFFECTS Hyaluronate: NE = No Effect.
Where [4] appears, read: Media added to upper compartment.
[5] abbreviates: TGF-β1 (50 pg/ml) added to upper compartment.

Take “PLPIVYYVGRKPKVE [Peptide 364-378, 15-mer peptide 364-378 of TGF-β1]”: in test [1] (setting [4]), the “Mean Fibroblasts per 20 OIF + SEM” value was found to be 122 ± 8 Fibroblasts per 20 OIF. Moreover, the “Mean Fibroblasts per 20 OIF + SEM” value in test [1] (setting [5]) is 37 ± 5 Fibroblasts per 20 OIF. Further, in test [1], the “fibroblast chemotaxis / migration (in words)” value was “induced migration of fibroblasts, monocytes and neutrophils in a dose dependent fashion”; the “chemotactic response of fibroblasts to peptide with fibronectin in upper chamber (in words)” value is given as “No such inhibition was seen”. In addition, the “FIBROBLAST EFFECTS HLA-DR” value in the test with fibroblasts [2] is on record as “NE”. In addition, the “T-Cell Proliferation” value in the test with T-Cell is “NE”. Also, in the test on guinea pig skin, the “Histologic Score (degree of fibrosis), Peptide site” value is 4 (4 equals 75 to 100% of fat cells replaced with collagen) and 3 (3 equals replacement of 50 to 75% of fat cells with collagen); the “fibrogenic response / fibrosis in guinea pig skin (in words)” value (shortened to “fibrogenic response / fibrosis”) is “induced a fibrinogenic response”. Further, in the test on guinea pig skin (listed as PLPIVYYVGRKPKVE), the “fibrogenic response / fibrosis” value was “extensive collagen synthesis”.
Regarding “YSKVLALYNQHNPGASAAPC (YSKVLALYNQHNPGASAAPC) [Peptide 337-356]”, in test [1], the “fibroblast chemotaxis / migration (in words)” value is listed as “has the ability to induce fibroblast chemotaxis” and the “chemotactic response of fibroblasts to peptide with fibronectin in upper chamber (in words)” value was “No such inhibition was seen”. Moreover, the “FIBROBLAST EFFECTS Hyaluronate” value with fibroblasts [3] (Table II summary) was “NE”. Also, the “FIBROBLAST EFFECTS HLA-DR” value in the test with fibroblasts [2] is given as “NE”. Moreover, in the test with guinea pig skin, the “fibrogenic response / fibrosis” value is “induced a fibrinogenic response”.
As to “VYYVGRK [Peptide 368-374, 7-mer corresponding to amino acids 368-374 of TGF-β1]”, the “Mean Fibroblasts per 20 OIF + SEM” value is given as 75 ± 2 Fibroblasts per 20 OIF in test [1] (setting [4]) and 23 ± 1 Fibroblasts per 20 OIF in test [1] (setting [5]). The “Fibroblasts per 20 OIF (mean ± SEM)” value is 38 ± 2 Fibroblasts per 20 OIF in test [1] (checkerboard: upper compartment 0, lower compartment 1.4 × 10^-6 M); 58 ± 5 Fibroblasts per 20 OIF in test [1] (checkerboard: upper compartment 0, lower compartment 7.0 × 10^-6 M); 20 ± 3 Fibroblasts per 20 OIF in test [1] (checkerboard: upper compartment 0, lower compartment 7.0 × 10^-7 M); 9 ± 1 Fibroblasts per 20 OIF in test [1] (checkerboard: upper compartment 1.4 × 10^-6 M, lower compartment 0); 9 ± 1 Fibroblasts per 20 OIF in test [1] (checkerboard: upper compartment 1.4 × 10^-6 M, lower compartment 1.4 × 10^-6 M); 24 ± 2 Fibroblasts per 20 OIF in test [1] (checkerboard: upper compartment 1.4 × 10^-6 M, lower compartment 7.0 × 10^-6 M). Further, the “Fibroblasts per 20 OIF (mean ± SEM)” value in test [1] (checkerboard: upper compartment 1.4 × 10^-6 M, lower compartment 7.0 × 10^-7 M) is 10 ± 1 Fibroblasts per 20 OIF; in test [1] (checkerboard: upper compartment 7.0 × 10^-6 M, lower compartment 0), 7 ± 1 Fibroblasts per 20 OIF; in test [1] (checkerboard: upper compartment 7.0 × 10^-6 M, lower compartment 1.4 × 10^-6 M) it was 8 ± 1 Fibroblasts per 20 OIF; in test [1] (checkerboard: upper compartment 7.0 × 10^-6 M, lower compartment 7.0 × 10^-6 M), 11 ± 1 Fibroblasts per 20 OIF; in test [1] (checkerboard: upper compartment 7.0 × 10^-6 M, lower compartment 7.0 × 10^-7 M), 7 ± 1 Fibroblasts per 20 OIF; in test [1] (checkerboard: upper compartment 7.0 × 10^-7 M, lower compartment 0), 8 ± 1 Fibroblasts per 20 OIF. In addition, the “Fibroblasts per 20 OIF (mean ± SEM)” value in test [1] (checkerboard: upper compartment 7.0 × 10^-7 M, lower compartment 1.4 × 10^-6 M) was 24 ± 2 Fibroblasts per 20 OIF; in test [1] (checkerboard: upper compartment 7.0 × 10^-7 M, lower compartment 7.0 × 10^-6 M), 39 ± 4 Fibroblasts per 20 OIF; in test [1] (checkerboard: upper compartment 7.0 × 10^-7 M, lower compartment 7.0 × 10^-7 M), 10 ± 1 Fibroblasts per 20 OIF. Moreover, the “fibroblast chemotaxis / migration (in words)” value in test [1] was “does stimulate fibroblast chemotaxis and synthesis of collagen and hyaluronic acid; also recorded: induced migration of fibroblasts, monocytes and neutrophils in a dose dependent fashion; also recorded: induced primarily chemotaxis of fibroblasts”; in test [1] (listed as VYYVGRKK) it was “induced fibroblast chemotaxis at all of the concentration tested”. In addition, the “chemotactic response of fibroblasts to peptide with fibronectin in upper chamber (in words)” value in test [1] was “No such inhibition was seen”. In the test on fibroblasts [3], the “synthesis of hyaluronic acid (in words)” value was “does stimulate fibroblast chemotaxis and synthesis of collagen and hyaluronic acid”. Also, in the test with fibroblasts [2], the “FIBROBLAST EFFECTS HLA-DR” value is on record as “NE”. The “T-Cell Proliferation” value in the test on T-Cell is given as “NE”. Further, the “Histologic Score (degree of fibrosis), Peptide site” value in the test on guinea pig skin is recorded as 1 (1 equals replacement of 10 to 25% of the fat cells with collagen). Moreover, the “fibrogenic response / fibrosis” value in the test with guinea pig skin is “did not induce”.
“340-391: synthetic peptide corresponding to sequence 340-391 of TGF-β1; positive chemotactic control (VLALYNQHNPGASAAPCCVPQALEPLPIVYYVGRKPKVEQLSNMIVRSCKCS; printed: Val Leu Ala Leu Tyr Asn Gln His Asn Pro Gly Ala Ser Ala Ala Pro Cys Cys Val Pro Gln Ala Leu Glu Pro Leu Pro Ile Val Tyr Tyr Val Gly Arg Lys Pro Lys Val Glu Gln Leu Ser Asn Met Ile Val Arg Ser Cys Lys Cys Ser) [Peptide 340-391]”: the “fibroblast chemotaxis / migration (in words)” value in test [1] is “migrated in a dose dependent fashion”. The “FIBROBLAST EFFECTS HLA-DR” value in the test on fibroblasts [2] is “NE”. Moreover, in the test on guinea pig skin, the “fibrogenic response / fibrosis” value is given as “induced a fibrinogenic response”.
